# Like-named read-outs stand apart in the source and are kept apart here.
# Experiments:
# Format in all cases: cell-based
# [1] = tested on: PC-3 prostate cancer cell line; assay: NCI five-dose testing; settings: for LC50 (lethal concentration 50): PC-3, read-out: LD50 (lethal dose 50); for IC50: read-out: IC50; for IC (TGI): read-out: TGI (total growth inhibition concentration)
# Experimental: (§1) Screening against the cancer cell lines was carried out at the National Cancer Institute (NCI, Bethesda, Maryland, USA) applying the standard protocol of the NCI[22].
# [2] = tested on: MDA-MB-468 breast cancer cell line; assay: NCI five-dose testing; settings: for CC50: MDA-MB-468, read-out: LD50 (lethal dose 50); for IC (TGI): read-out: TGI (total growth inhibition concentration)
# Experimental: as §1
# [3] = tested on: HT-29 colon cancer cell line; assay: NCI five-dose testing; settings: for CC50: HT-29, read-out: LD50 (lethal dose 50); for IC50: read-out: IC50; for IC (TGI): read-out: TGI (total growth inhibition concentration)
# Experimental: as §1
# [4] = tested on: HOP-92 non-small cell lung cancer cell line; assay: NCI five-dose testing; settings: for IC (TGI): read-out: TGI (total growth inhibition concentration)
# Experimental: as §1
# [5] = tested on: K-562 leukaemia cell line; assay: NCI five-dose testing; settings: for CC50: K562, read-out: LD50 (lethal dose 50); for IC (TGI): read-out: TGI (total growth inhibition concentration)
# Experimental: as §1
# [6] = tested on: SK-MEL-5 melanoma cell line; assay: NCI five-dose testing; settings: for LC50 (lethal concentration 50): SK-MEL-5, read-out: LD50 (lethal dose 50); for IC (TGI): read-out: TGI (total growth inhibition concentration)
# Experimental: as §1
# [7] = tested on: U251 CNS cancer cell line; assay: NCI five-dose testing; settings: for CC50: U-251, read-out: LD50 (lethal dose 50); for IC50: read-out: IC50; for IC (TGI): read-out: TGI (total growth inhibition concentration)
# Experimental: as §1
# [8] = tested on: A498 renal cancer cell line; assay: NCI five-dose testing; settings: for LC50 (lethal concentration 50%): A498, read-out: LD50 (lethal dose 50); for IC (TGI): read-out: TGI (total growth inhibition concentration)
# Experimental: as §1
# [9] = tested on: OVCAR-4 ovarian cancer cell line; assay: NCI five-dose testing; settings: for LC50 (lethal concentration 50): OVCAR-4, read-out: LD50 (lethal dose 50); for IC (TGI): read-out: TGI (total growth inhibition concentration)
# Experimental: as §1
# [10] = tested on: non-small cell lung cancer cell lines; assay: NCI five-dose testing, subpanel mean; settings: subpanel II: non-small cell lung cancer
# Experimental: as §1
# melanoma cell lines = assay: NCI five-dose testing, subpanel mean; settings: subpanel V: melanoma
# Experimental: as §1
# [11] = tested on: prostate cancer cell lines; assay: NCI five-dose testing, subpanel mean; settings: subpanel VIII: prostate cancer
# Experimental: as §1
# breast cancer cell lines = assay: NCI five-dose testing, subpanel mean; settings: subpanel IX: breast cancer
# Experimental: as §1
# Leukaemia cell lines = assay: NCI five-dose testing, subpanel mean; settings: subpanel I: Leukaemia
# Experimental: as §1
# [12] = tested on: ovarian cancer cell lines; assay: NCI five-dose testing, subpanel mean; settings: subpanel VI: ovarian cancer
# Experimental: as §1
# renal cancer cell lines = assay: NCI five-dose testing, subpanel mean; settings: subpanel VII: renal cancer
# Experimental: as §1
# colon cancer cell lines = assay: NCI five-dose testing, subpanel mean; settings: subpanel III: colon cancer
# Experimental: as §1
# CNS cancer cell lines = assay: NCI five-dose testing, subpanel mean; settings: subpanel IV: CNS cancer
# Experimental: as §1
# NCI-60 cell line panel = assay: NCI-60 single-dose (10 µM) antiproliferative screening, mean over panel; settings: single-dose 10 µM, 60-cancer cell line screening
# Experimental: as §1
# The final target compounds were submitted to the National Cancer Institute (NCI), Maryland, USA[23]. Thirty-one compounds were selected to be tested over 60 cell lines at single dose 10 µM.
# [13] = Homo sapiens, HOP-92, read-out: LD50 (lethal dose 50)
structure (smiles),measurement,setting,value
"COc1cccc(-c2nn(-c3ccccc3)cc2-c2ccnc(NCCNS(=O)(=O)c3ccc(C(F)(F)F)cc3)c2)c1 [Compound 1g, N-(2-((4-(3-(3-Methoxyphenyl)-1-phenyl-1H-pyrazol-4-yl)pyridin-2-yl)amino)ethyl)-4-(trifluoromethyl)benzenesulfonamide]",LC50 (lethal concentration 50),[1]; Homo sapiens,> 100 µM
same,IC50,"[1]; Homo sapiens, PC-3",2860 nM
same,IC (TGI),"[1]; Homo sapiens, PC-3",26.7 µM
same,IC50,"[2]; Homo sapiens, MDA-MB-468",3310 nM
same,CC50,[2]; Homo sapiens,> 100 µM
same,IC (TGI),"[2]; Homo sapiens, MDA-MB-468",> 100 µM
same,CC50,[3]; Homo sapiens,37.7 µM
same,IC50,"[3]; Homo sapiens, HT-29",2320 nM
same,IC (TGI),"[3]; Homo sapiens, HT-29",5.7 µM
same,IC50,"[4]; Homo sapiens, HOP-92",2120 nM
same,IC (TGI),"[4]; Homo sapiens, HOP-92, HOP-92",6.8 µM
same,LD50 (lethal dose 50),[4]; [13],> 100 µM
same,CC50,[5]; Homo sapiens,> 100 µM
same,IC50,"[5]; Homo sapiens, K562, K-562",2870 nM
same,IC (TGI),"[5]; Homo sapiens, K562, K-562",19 µM
same,IC50,"[6]; Homo sapiens, SK-MEL-5",1720 nM
same,LC50 (lethal concentration 50),[6]; Homo sapiens,5.6 µM
same,IC (TGI),"[6]; Homo sapiens, SK-MEL-5",3.1 µM
same,CC50,[7]; Homo sapiens,63.4 µM
same,IC50,"[7]; Homo sapiens, U-251, U251",3540 nM
same,IC (TGI),"[7]; Homo sapiens, U-251, U251",13.9 µM
same,IC50,"[8]; Homo sapiens, A498",3400 nM
same,LC50 (lethal concentration 50%),[8]; Homo sapiens,> 100 µM
same,IC (TGI),"[8]; Homo sapiens, A498",6.5 µM
same,IC50,"[9]; Homo sapiens, OVCAR-4",2940 nM
same,LC50 (lethal concentration 50),[9]; Homo sapiens,> 100 µM
same,IC (TGI),"[9]; Homo sapiens, OVCAR-4",> 100 µM
same,IC50,[10],6360 nM
same,IC50,melanoma cell lines,4940 nM
same,IC50,[11],13 µM
same,IC50,breast cancer cell lines,4050 nM
same,IC50,Leukaemia cell lines,3350 nM
same,IC50,[12],6.1 µM
same,IC50,renal cancer cell lines,5320 nM
same,IC50,colon cancer cell lines,4910 nM
same,IC50,CNS cancer cell lines,5280 nM
same,inhibition at 10 µM,NCI-60 cell line panel,92.8%
"O=S(=O)(NCCCNc1cc(-c2cn(-c3ccccc3)nc2-c2cccc(O)c2)ccn1)c1cccc2ccccc12 [Compound 2q, N-(3-((4-(3-(3-Hydroxyphenyl)-1-phenyl-1H-pyrazol-4-yl)pyridin-2-yl)amino)propyl) naphthalene-1-sulfonamide]",LC50 (lethal concentration 50),[1]; Homo sapiens,> 100 µM
same,IC50,"[1]; Homo sapiens, PC-3",1930 nM
same,IC (TGI),"[1]; Homo sapiens, PC-3",44.9 µM
same,IC50,"[2]; Homo sapiens, MDA-MB-468",1800 nM
same,CC50,[2]; Homo sapiens,> 100 µM
same,IC (TGI),"[2]; Homo sapiens, MDA-MB-468",6 µM
same,CC50,[3]; Homo sapiens,4.5 µM
same,IC50,"[3]; Homo sapiens, HT-29",1230 nM
same,IC (TGI),"[3]; Homo sapiens, HT-29",1.7 µM
same,IC50,"[4]; Homo sapiens, HOP-92",1560 nM
same,IC (TGI),"[4]; Homo sapiens, HOP-92, HOP-92",7.2 µM
same,LD50 (lethal dose 50),[4]; [13],> 100 µM
same,CC50,[5]; Homo sapiens,> 100 µM
same,IC50,"[5]; Homo sapiens, K562, K-562",920 nM
same,IC (TGI),"[5]; Homo sapiens, K562, K-562",4.4 µM
same,IC50,"[6]; Homo sapiens, SK-MEL-5",1530 nM
same,LC50 (lethal concentration 50),[6]; Homo sapiens,7.4 µM
same,IC (TGI),"[6]; Homo sapiens, SK-MEL-5",3.4 µM
same,CC50,[7]; Homo sapiens,41.3 µM
same,IC50,"[7]; Homo sapiens, U-251, U251",1280 nM
same,IC (TGI),"[7]; Homo sapiens, U-251, U251",13.2 µM
same,IC50,"[8]; Homo sapiens, A498",1100 nM
same,LC50 (lethal concentration 50%),[8]; Homo sapiens,> 100 µM
same,IC (TGI),"[8]; Homo sapiens, A498",6.6 µM
same,IC50,"[9]; Homo sapiens, OVCAR-4",1920 nM
same,LC50 (lethal concentration 50),[9]; Homo sapiens,> 100 µM
same,IC (TGI),"[9]; Homo sapiens, OVCAR-4",> 100 µM
same,IC50,[10],3050 nM
same,IC50,melanoma cell lines,2270 nM
same,IC50,[11],3.44 µM
same,IC50,breast cancer cell lines,1950 nM
same,IC50,Leukaemia cell lines,1960 nM
same,IC50,[12],5.28 µM
same,IC50,renal cancer cell lines,2990 nM
same,IC50,colon cancer cell lines,2620 nM
same,IC50,CNS cancer cell lines,2330 nM
"O=S(=O)(NCCNc1cc(-c2cn(-c3ccccc3)nc2-c2cccc(O)c2)ccn1)c1ccc(F)cc1 [Compound 1m, 4-Fluoro-N-(2-((4-(3-(3-hydroxyphenyl)-1-phenyl-1H-pyrazol-4-yl)pyridin-2-yl)amino)ethyl) benzenesulfonamide]",LD50 (lethal dose 50),[1]; PC-3,>100 µM
same,IC50,[1]; PC-3,2290 nM
same,IC (TGI),[1]; PC-3,10.2 µM
same,IC50,[2]; MDA-MB-468,1880 nM
same,LD50 (lethal dose 50),[2]; MDA-MB-468,>100 µM
same,IC (TGI),[2]; MDA-MB-468,5.3 µM
same,LD50 (lethal dose 50),[3]; HT-29,54.3 µM
same,IC50,[3]; HT-29,1990 nM
same,IC (TGI),[3]; HT-29,47.9 µM
same,IC50,[4]; HOP-92,2030 nM
same,LD50 (lethal dose 50),[4]; HOP-92,68.8 µM
same,IC (TGI),[4]; HOP-92,8.4 µM
same,IC50,[5]; K-562,1980 nM
same,LD50 (lethal dose 50),[5]; K-562,>100 µM
same,IC (TGI),[5]; K-562,>100 µM
same,IC50,[6]; SK-MEL-5,1730 nM
same,LD50 (lethal dose 50),[6]; SK-MEL-5,6.0 µM
same,IC (TGI),[6]; SK-MEL-5,3.2 µM
same,LD50 (lethal dose 50),[7]; U251,50.9 µM
same,IC50,[7]; U251,2620 nM
same,IC (TGI),[7]; U251,6.8 µM
same,IC50,[8]; A498,2320 nM
same,LD50 (lethal dose 50),[8]; A498,45.7 µM
same,IC (TGI),[8]; A498,9.2 µM
same,IC50,[9]; OVCAR-4,3050 nM
same,LD50 (lethal dose 50),[9]; OVCAR-4,>100 µM
same,IC (TGI),[9]; OVCAR-4,>100 µM
same,IC50,[10],2650 nM
same,IC50,melanoma cell lines,2060 nM
same,IC50,[11],2.88 µM
same,IC50,breast cancer cell lines,2160 nM
same,IC50,Leukaemia cell lines,2290 nM
same,IC50,[12],2.68 µM
same,IC50,renal cancer cell lines,2880 nM
same,IC50,colon cancer cell lines,2340 nM
same,IC50,CNS cancer cell lines,2510 nM
"O=S(=O)(NCCCNc1cc(-c2cn(-c3ccccc3)nc2-c2cccc(O)c2)ccn1)c1ccc(C(F)(F)F)cc1 [Compound 2o, N-(3-((4-(3-(3-Hydroxyphenyl)-1-phenyl-1H-pyrazol-4-yl)pyridin-2-yl)amino)propyl)-4-(trifluoromethyl)benzenesulfonamide]",LC50 (lethal concentration 50),[1]; Homo sapiens,18.9 µM
same,IC50,"[1]; Homo sapiens, PC-3",2870 nM
same,IC (TGI),"[1]; Homo sapiens, PC-3",4.5 µM
same,IC50,"[2]; Homo sapiens, MDA-MB-468",1850 nM
same,CC50,[2]; Homo sapiens,> 100 µM
same,IC (TGI),"[2]; Homo sapiens, MDA-MB-468",5.5 µM
same,CC50,[3]; Homo sapiens,8.1 µM
same,IC50,"[3]; Homo sapiens, HT-29",500 nM
same,IC (TGI),"[3]; Homo sapiens, HT-29",3.1 µM
same,IC50,"[4]; Homo sapiens, HOP-92",1410 nM
same,IC (TGI),"[4]; Homo sapiens, HOP-92, HOP-92",3.6 µM
same,LD50 (lethal dose 50),[4]; [13],9.7 µM
same,CC50,[5]; Homo sapiens,> 100 µM
same,IC50,"[5]; Homo sapiens, K562, K-562",610 nM
same,IC (TGI),"[5]; Homo sapiens, K562, K-562",5.3 µM
same,IC50,[5]; K-562,617 nM
same,IC50,"[6]; Homo sapiens, SK-MEL-5",1570 nM
same,LC50 (lethal concentration 50),[6]; Homo sapiens,5.6 µM
same,IC (TGI),"[6]; Homo sapiens, SK-MEL-5",2.9 µM
same,CC50,[7]; Homo sapiens,8.1 µM
same,IC50,"[7]; Homo sapiens, U-251, U251",1780 nM
same,IC (TGI),"[7]; Homo sapiens, U-251, U251",3.2 µM
same,IC50,"[8]; Homo sapiens, A498",1090 nM
same,LC50 (lethal concentration 50%),[8]; Homo sapiens,6.3 µM
same,IC (TGI),"[8]; Homo sapiens, A498",2.6 µM
same,IC50,"[9]; Homo sapiens, OVCAR-4",3060 nM
same,LC50 (lethal concentration 50),[9]; Homo sapiens,> 100 µM
same,IC (TGI),"[9]; Homo sapiens, OVCAR-4",5.1 µM
same,IC50,[10],2120 nM
same,IC50,melanoma cell lines,1720 nM
same,IC50,[11],2.79 µM
same,IC50,breast cancer cell lines,1870 nM
same,IC50,Leukaemia cell lines,1900 nM
same,IC50,[12],2.32 µM
same,IC50,renal cancer cell lines,2030 nM
same,IC50,colon cancer cell lines,1640 nM
same,IC50,CNS cancer cell lines,1710 nM

# From PMC6211260 (Journal of Enzyme Inhibition and Medicinal Chemistry, 2018)
